Data as given in PMC7541553 (Molecular cancer therapeutics, 2020).

Parameters: species or system BALB/C mice
Settings: mouse, in vivo, iv

t1/2 in the circulation: 33.4 ± 0.9 min
Substance: Arg-Gly-Asp [RGD]
